Assay results as given in patent US20100184815A1 (priority 2008, published 2010).
Like-named read-outs stand apart in the source and are kept apart here.

Experiments:
Gal-4 hPPARγ = target: T1, Gal-4 hPPARγ (Homo sapiens, UniProt P37231); experiment: Gal4-hPPARγ transient transfection reporter assay in Cos cells; format: cell-based; settings: luciferase reporter, 24 hours with compound, scale 1-5, read-out: Gal-4 hPPAR γ EC50 (scaled number)
T1 construct: Plasmids pGal4-hPPARα, pGal4-hPPARγ, pGal4-hPPARδ and pG5-TK-pGL3 were constructed as previously described by Staels, Bart, et al., Nature 1998 Jun; 25
T1 sequence (P37231 238-505 limits assumed): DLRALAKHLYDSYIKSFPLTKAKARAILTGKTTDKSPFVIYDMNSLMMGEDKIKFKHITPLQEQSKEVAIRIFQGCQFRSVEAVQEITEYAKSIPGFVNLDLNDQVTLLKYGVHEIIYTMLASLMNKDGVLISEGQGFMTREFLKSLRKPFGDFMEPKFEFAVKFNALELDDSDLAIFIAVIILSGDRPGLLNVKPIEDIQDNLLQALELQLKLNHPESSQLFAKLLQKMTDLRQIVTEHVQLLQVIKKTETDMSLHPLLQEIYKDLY
Procedure, shortened: (§1)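 Cos cells transiently co-transfected with Gal4-hPPAR expression plasmid, pG5-TK-pGL3 luciferase reporter and β-galactosidase control, then treated 24 h with increasing compound concentrations in DMEM containing 0.2% FCS. Luciferase normalised to β-galactosidase; EC50 from curve fit, at least three experiments.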

Gal-4 hPPARβ/δ = target: T2, Gal-4 hPPARβ/δ (Homo sapiens, UniProt Q03181); experiment: Gal4-hPPARδ transient transfection reporter assay in Cos cells; format: cell-based; settings: luciferase reporter, 24 hours with compound, scale 1-5, read-out: Gal-4 hPPAR β/δ EC50 (scaled number)
T2 construct: Plasmids pGal4-hPPARα, pGal4-hPPARγ, pGal4-hPPARδ and pG5-TK-pGL3 were constructed as previously described by Staels, Bart, et al., Nature 1998 Jun; 25
T2 sequence (Q03181 171-441 limits assumed): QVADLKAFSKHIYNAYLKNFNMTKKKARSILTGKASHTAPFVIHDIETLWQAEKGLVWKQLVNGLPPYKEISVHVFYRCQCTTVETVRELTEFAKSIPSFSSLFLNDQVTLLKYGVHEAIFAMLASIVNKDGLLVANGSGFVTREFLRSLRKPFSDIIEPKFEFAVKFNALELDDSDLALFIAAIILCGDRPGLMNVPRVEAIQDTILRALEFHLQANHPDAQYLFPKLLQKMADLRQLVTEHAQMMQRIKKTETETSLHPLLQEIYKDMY
Procedure, shortened: as §1

[1] = Metabolism studies using human liver microsomal preparations; format: in vitro ADME; settings: for HLMs t1/2 (min) / half-life: pooled human liver microsomes, with NADPH (CYP system active), 37° C.; for HLMs Predominant Enzyme: comparison of half life with and without NADPH: Esterase, CYP or Mixed; for half-life: pH 7.4, read-out: HLMs t1/2
Procedure: Compounds were incubated in pooled human liver microsomes (HLMs) in the presence or absence of an NADPH-generating system. NADPH is required for the activity of cytochrome P450 (CYP) and other oxidative enzymes present in HLMs, but not for esterase activity. An additional incubation was carried out in the absence of HLM to assess compound stability. The disappearance of parent and the appearance of the corresponding acid metabolite were monitored over the time course of the incubations using LC-MS/MS.
A stock solution (20 mM) of each proprietary compound in DMSO was prepared and store at −20° C. until needed. A working stock solution (0.2 mM) was prepared for each proprietary compound by adding an aliquot of the stock solution (10 μL) to acetonitrile (990 μL).
An aliquot of the HLM solution was removed from the −80° C. freezer and placed on ice. Tris Buffer (50 mM, pH 7.4) containing MgCl2 (hexahydrate, 5 mM) was pre-incubated in a 37° C. water bath. A set of Eppendorf microfuge tubes (1.5 mL) was appropriately labeled. To each tube was added Tris buffer with or without the NADPH generating system. An aliquot of pooled HLMs was added to all the incubations except those that were the buffer control.
Tubes were preincubated for 5 min in a shaking incubator bath (37° C., 900 rpm) and the reaction was initiated by adding an aliquot of the proprietary working solution (5 μL). The additions were timed carefully in order to coordinate the sample collections below. A small aliquot (50 μL) was removed at […] and delivered to the respective tubes containing dextrorphan (100 μL of 0.5 μg/mL solution) in dissolved in methanol or acetonitrile. The samples were centrifuged at 14000 g for 15 minutes at 4° C. The supernatant was transferred to clean labeled HPLC injection vials and stored at −80° C. until analyzed. An aliquot of the supernatant […] was added to water (75 μL), mixed and injected onto the LC-MS/MS system for analysis.
“HLM t1/2” represents the observed half life of the compound under conditions that included NADPH, i.e., the CYP system was active. Comparison to the half life of the test article under (−)NADPH conditions, the enzyme predominant ly responsible for the metabolism of the test article. […] Where roughly equal metabolism is seen by each enzyme system, “mixed” is noted in the “Predominant enzyme” column.

Gal-4 hPPARα = target: T3, Gal-4 hPPARα (Homo sapiens, UniProt Q07869); experiment: Gal4-hPPARα transient transfection reporter assay in Cos cells; format: cell-based; settings: luciferase reporter, 24 hours with compound, scale 1-5, read-out: Gal-4 hPPAR α EC50 (scaled number)
T3 construct: Plasmids pGal4-hPPARα, pGal4-hPPARγ, pGal4-hPPARδ and pG5-TK-pGL3 were constructed as previously described by Staels, Bart, et al., Nature 1998 Jun; 25
T3 sequence (Q07869 200-468 limits assumed): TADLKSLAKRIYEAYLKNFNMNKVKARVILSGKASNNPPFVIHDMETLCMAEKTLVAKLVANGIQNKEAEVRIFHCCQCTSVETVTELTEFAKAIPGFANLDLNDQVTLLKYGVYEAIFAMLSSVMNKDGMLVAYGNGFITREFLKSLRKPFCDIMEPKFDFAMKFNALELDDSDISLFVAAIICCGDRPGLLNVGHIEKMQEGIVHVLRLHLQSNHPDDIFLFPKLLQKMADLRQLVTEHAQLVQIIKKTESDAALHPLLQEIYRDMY
Procedure, shortened: as §1

pig liver esterase = experiment: Metabolism studies using pig liver esterase; format: in vitro ADME; settings: 37° C.
Procedure: The esterase-mediated metabolism of these compounds was studied using commercially available pig liver esterase in the presence and absence of human plasma proteins. The disappearance of parent was monitored over the time course of the incubations using a LC-UV detection system.
A stock solution and working stock solution was prepared for each proprietary compound as described for the human liver microsomal incubations. Working solutions of pig liver esterase in potassium phosphate buffer ([…], pH 7.4) and pig liver esterase in human plasma protein were prepared by dissolving pig liver esterase (2.51 mg) in the phosphate buffer or plasma protein solutions, respectively.
A set of three Eppendorf microfuge tubes (1.5 mL) was appropriately labeled. To each tube was added 1.5 mL of phosphate buffer, pig liver esterase in buffer, or pig liver esterase in human plasma protein solution. These solutions were pre-incubated (37° C., 900 rpm) and the reactions were initiated by adding an aliquot (37.5 μL) of the working solution of proprietary compound to each tube. An aliquot (100 μL) from each tube was removed at time 0, 5, 30, 60, and 120 min and added to a tube containing acetonitrile (200 μL) to stop the reaction.
The samples were centrifuged at 14000 g for 15 minutes at 4° C. The supernatant was transferred to clean labeled HPLC injection vials and stored at −80° C. until analyzed. An aliquot of the supernatant (25 μL) was injected onto the LC-UV system for analysis.
Half lives of a sample of test articles is noted in the following table. Half life was determined in the presence or absence of plasma.

[2] = pig liver esterase in human plasma protein solution, read-out: Pig Liver Esterase (t1/2 min.) (+) Plasma
[3] = pig liver esterase in phosphate buffer pH 7.4, no plasma, read-out: Pig Liver Esterase (t1/2 min.) (−) Plasma
[4] = pig liver esterase in human plasma protein solution

Structure (SMILES)	EC50 (Gal-4 hPPARγ)	EC50 (Gal-4 hPPARβ/δ)	HLMs t1/2 (min) [1]	EC50 (Gal-4 hPPARα)	half-life at 4.9 µM (pig liver esterase; [2])	half-life at 4.9 µM (pig liver esterase; [3])	HLMs Predominant Enzyme [1]	half-life [1]	Pig Liver Esterase (t1/2 min.) (+) Plasma (pig liver esterase; [4])
CCCn1c([C@H](C)OC(=O)c2ccc(SC(C)(C)C(=O)O)cc2)nn(Cc2ccc(C)cc2)c1=O [Compound 248, 4-(1-Carboxy-1-methyl-ethylsulfanyl)-benzoic acid (S)-1-[1-(4-methyl-benzyl)-5-oxo-4-propyl-4,5-dihydro-1H-1,2,4-triazol-3-yl]-ethyl ester]	> 1000 nM	> 1000 nM	Stable	51 to 200 nM	> 120 min	> 120 min			
CCCn1nc(Cc2ccc(C)cc2)cc1COC(=O)c1ccc(OC(C)(C)C(=O)O)cc1 [Compound 54, 4-(1-Carboxy-1-methyl-ethoxy)-benzoic acid 5-(4-methyl-benzyl)-2-propyl-2H-pyrazol-3-ylmethyl ester]					> 120 min	3 min	Esterase	30 min	
CCCCCCCCn1c(COC(=O)Cc2ccc(OC(C)(C)C(=O)O)cc2)nn(Cc2ccc(C)cc2)c1=O [Compound 012, 2-methyl-2-(4-(2-((1-(4-methylbenzyl)-4-octyl-5-oxo-4,5-dihydro-1H-1,2,4-triazol-3-yl)methoxy)-2-oxoethyl)phenoxy)propanoic acid]			Stable			12 min			Stable
CCCCCCn1c(COC(=O)Cc2ccc(OC(C)(C)C(=O)O)cc2)nn(Cc2ccc(C)cc2)c1=O [Compound 014, 2-(4-(2-((4-hexyl-1-(4-methylbenzyl)-5-oxo-4,5-dihydro-1H-1,2,4-triazol-3-yl)methoxy)-2-oxoethyl)phenoxy)-2-methylpropanoic acid]			Stable			19 min			Stable
Cc1ccc(Cn2nncc2COC(=O)c2ccc(OC(C)(C)C(=O)O)cc2)cc1 [Compound 63, 2-methyl-2-(4-(((1-(4-methylbenzyl)-1H-1,2,3-triazol-5-yl)methoxy)carbonyl)phenoxy)propanoic acid]			Stable			120 min	Stable		Stable

More lines, now with the values ahead:

EC50 (Gal-4 hPPARγ)	EC50 (Gal-4 hPPARβ/δ)	HLMs t1/2 (min) [1]	EC50 (Gal-4 hPPARα)	half-life at 4.9 µM (pig liver esterase; [2])	half-life at 4.9 µM (pig liver esterase; [3])	HLMs Predominant Enzyme [1]	half-life [1]	Pig Liver Esterase (t1/2 min.) (+) Plasma (pig liver esterase; [4])	Structure (SMILES)
> 1000 nM	> 1000 nM	Stable	1 to 50 nM	> 120 min	> 120 min				CCCn1c([C@@H](C)OC(=O)c2ccc(SC(C)(C)C(=O)O)cc2)nn(Cc2ccc(C)cc2)c1=O [Compound 249, 4-(1-Carboxy-1-methyl-ethylsulfanyl)-benzoic acid (R)-1-[1-(4-methyl-benzyl)-5-oxo-4-propyl-4,5-dihydro-1H-1,2,4-triazol-3-yl]-ethyl ester]
> 1000 nM	> 1000 nM	Stable	1 to 50 nM	> 120 min	68 min				C[C@@H](OC(=O)c1ccc(SC(C)(C)C(=O)O)cc1)c1cn(Cc2ccc(C(F)(F)F)cc2)nn1 [Compound 95, (R)-2-methyl-2-(4-((1-(1-(4-(trifluoromethyl)benzyl)-1H-1,2,3-triazol-4-yl)ethoxy)carbonyl)phenylthio)propanoic acid]
> 1000 nM	> 1000 nM	Stable	1 to 50 nM	> 120 min	> 120 min				CCCn1c(C(C)OC(=O)c2ccc(SC(C)(C)C(=O)O)cc2)nn(Cc2ccc(C)cc2)c1=O (stereo not shown) [Compound 199, 2-methyl-2-(4-((1-(1-(4-methylbenzyl)-5-oxo-4-propyl-4,5-dihydro-1H-1,2,4-triazol-3-yl)ethoxy)carbonyl)phenylthio)propanoic acid]
				44 min	15 min	Esterase	30 min		CC(C)c1ccc(-n2nncc2COC(=O)c2ccc(SC(C)(C)C(=O)O)cc2)cc1 [Compound 59, 2-(4-(((1-(4-isopropylphenyl)-1H-1,2,3-triazol-5-yl)methoxy)carbonyl)phenylthio)-2-methylpropanoic acid]
				16 min	< 1 min	Esterase	5 min		CCCn1nc(Cc2ccc(C)cc2)cc1COC(=O)c1ccc(SC(C)(C)C(=O)O)cc1 [Compound 55, 4-(1-Carboxy-1-methyl-ethylsulfanyl)-benzoic acid 5-(4-methyl-benzyl)-2-propyl-2H-pyrazol-3-ylmethyl ester]
